Source: patent US12303489B2, “Combination treatment of arthritic disease” (SYNACT PHARMA APS, priority 2019, dated 2025)

What was measured:
MC1R [1] = target: MC1R (Homo sapiens, UniProt Q01726); conditions: WO 2007/141343; cited from earlier work
[2] = Phase I Part I: single ascending oral dose pharmacokinetics (oral suspension); type: in vivo, human (healthy volunteers)
Method: FIG. 2: Plasma concentration following single oral dosing of test compound in healthy volunteers. […] Dose levels of test compound: 100, 200, 400, 600 or 800 mg. Consecutive plasma samples were collected and concentration in plasma determined by LCMS-MS. N=6 per dose level. Mean per group.

MC3R = conditions: induces ERK1/2-phosphorylation and Ca2+ mobilization; cited from earlier work
[3] = Phase I Part IV: 14-day repeated dose pharmacokinetics, oral suspension; type: in vivo, human (healthy volunteers)
Method: FIG. 3: Plasma concentration following repeated oral dosing of test compound in healthy volunteers. […] Dose levels of test compound 1: 50, 100, 200 mg. Consecutive plasma samples were collected following the last day of dosing (day 14) and concentration in plasma determined by LCMS-MS. N=9 per dose level. Mean+/−SD per group.

[4] = test system: K/BxN serum induced arthritis in C57/BL6 mice; test: K/BxN serum transfer arthritis, incidence of severe arthritis; type: in vivo; conditions: K/BxN serum i.p. days 0 and 2; 8 days study period; N=6; drug alone
Method: Six week-old C57/BL6 mice were purchased from Charles River and left for one week for acclimatization before starting the experiment.
Arthritis was induced with two i.p. injections of 100 μl K/BxN serum on days 0 and 2 (for details see J Immunol 2015; 194:3381-3388).
Methotrexate and Veh2 (12.5% carbonate) were administered on days 3, 5 and 7 by i.p. injection (injected volume: 200 μl).
Preparation of methotrexate formulation: A small volume of 0.1M carbonate-bicarbonate buffer pH=9.6 was used to dissolve methotrexate (Sigma Cat no: A6770). Then, PBS was used to reach the desired concentration. […] Diluted compound was divided in single-use aliquots and stored at −20° C. until use.
The development of arthritis was monitored daily from day 0 to day 8.
Mice were sacrificed on day 8 after recording the daily measurements.
Visible signs of arthritis were assessed using the scoring method as described in Am J Pathol, 2014; 184(8):2333-41 consisting on assigning a score of 0-3 per paw, reaching a maximum of 12 per mouse: • Score 0: no signs of inflammation. • Score 1: subtle inflammation, localized. • Score 2: easily identified but localized. • Score 3: evident inflammation, not localized. […]
The incidence of severe arthritis was calculated as the % of mice in each group that reached a total score of 10.

[5] = Phase I Part II: comparative bioavailability tablet vs. oral suspension; type: in vivo, human (healthy volunteers); conditions: 200 mg as two 100 mg tablets vs. 200 mg oral suspension, three-way cross-over
[6] = Phase I Part IV: 14-day repeated dose safety, oral suspension
Method: A Part IV was added to the study that was identical to Study Part III but conducted with the oral suspension in fasting conditions.
The dose levels tested were 50 mg, 100 mg or 200 mg with matching placebo (See FIG. 3).

[7] = Phase I Part III: 14-day repeated dose pharmacokinetics, tablets; type: in vivo, human (healthy volunteers); conditions: tablets 100 mg daily (Group 1)
Description: (§1) Fourteen days repeated dosing was initiated using a tablet formulation (Part III) and was completed (Part IV) using the suspension for oral administration.
A total of 111 subjects were randomized; 104 young healthy male volunteers and eight (8) post-menopausal women.

[8] = Phase I Part I: single ascending oral dose safety
Description: as §1
The two first male groups were composed of 3 subjects receiving active and one subject placebo; the other groups consisted of 6 subjects receiving active IMP and two subjects receiving placebo. Forty-eight (48) healthy male volunteers aged 19 to 39 years and eight (8) healthy postmenopausal female volunteers, aged 47 to 60 years were included.

MC1R [9] = conditions: cited from earlier work
[10] = female post-menopausal subjects, single 400 mg oral suspension
[11] = 50, 100 or 200 mg once daily for 14 days

Chain of MC1R (Homo sapiens, UniProt Q01726) (Q01726 whole entry, species assumed): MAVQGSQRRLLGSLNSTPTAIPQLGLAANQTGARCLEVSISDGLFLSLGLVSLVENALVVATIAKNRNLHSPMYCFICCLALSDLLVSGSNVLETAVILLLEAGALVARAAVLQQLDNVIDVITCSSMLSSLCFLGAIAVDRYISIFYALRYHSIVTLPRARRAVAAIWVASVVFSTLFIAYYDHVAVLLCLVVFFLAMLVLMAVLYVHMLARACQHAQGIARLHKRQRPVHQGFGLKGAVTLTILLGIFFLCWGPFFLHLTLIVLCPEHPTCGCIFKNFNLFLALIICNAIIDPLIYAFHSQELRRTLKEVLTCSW

SMILES: CC(=O)O.N=C(N)N/N=C/C=C/c1cccn1-c1ccccc1[N+](=O)[O-] [AP1189]
- binding to MC1R (MC1R [1]): shown to bind the MC1R
- Cmax and AUCs compared to male subjects [2, 10]: slightly increased
- apparent clearance [2, 10]: 17.26 L/h
- apparent volume of distribution compared to male subjects [2, 10]: similar
- inter-individual variability for Cmax and AUCs ([2]; male subjects, single oral suspension, dose range 50-800 mg, fasting): < 36%
- exposure at the maximum administrated dose (MAD) above expected exposure level for therapeutic efficacy ([2]; single oral dose, MAD): more than 10 ×
- activity at receptor MC3R (MC3R): biased dual agonist
- day steady state achieved ([3]; 50 mg once daily oral suspension): 7 days
- peak increase compared to cohort 1 (50 mg) ([3]; 100 mg once daily oral suspension): approximately 2 fold
- Cmax ([3]; male, human, plasma, oral, 200 mg once daily, steady conditions, read-out: C Max (mean +/− SD, N = 9)): 893 ± 198 ng/mL
- incidence of severe arthritis (% of mice in each group that reached a total score of 10) [4]: 50%
- exposure of tablet compared to oral suspension [5]: lower exposure with higher variability
- QTcF in repeated standard 12 lead safety ECG [6, 11]: No individual QTcF clinically significant values
- severe AEs / serious AEs [6, 11]: No severe AEs nor serious AEs
- subjects treated with active with isolated increases in aminotransferases ([6]; Cohort 3, 200 mg once daily for 14 days): 3 subjects
- TEAEs considered possibly related to the study treatment ([6]; once daily for 14 days, 2 at 50 mg, 2 at 200 mg, gastrointestinal disorders): 4 events
- MTD ([6]; up to 200 mg once daily for 14 days): not reached
- bioavailability within and between subjects [7]: high and unpredicted degree of bioavailability both within and between subjects
- exposure judged on Cmax, span [7]: from below the limit of quantification (BLQ) up to levels expected to be more than three times the exposure expected to induce therapeutic effects
- QTcF and other cardiac parameters ([8]; continuous 24-hours 1000 HZ Holter ECG recording, single dose): No AP1189 associated increases in QTcF
- increase in aminotransferases, above the normal upper value of ALT ([8]; male subjects, single dose 400, 600 or 800 mg): up to 1.6
- subjects with isolated increases in aminotransferases ([8]; male subjects, single dose (1 at 400 mg, 2 at 600 mg, 1 at 800 mg)): 4 subjects
- severe AEs / serious AEs ([8]; single oral dose 15-800 mg): No severe AEs nor serious AEs
- treatment-related changes in vital signs ([8]; single oral dose 15-800 mg): No treatment-related changes in vital signs
- maximum tolerated dose (MTD) ([8]; single oral dose up to 800 mg): not reached
- activity at receptor MC1R (MC1R [9]; induces ERK1/2-phosphorylation and Ca2+ mobilization): biased dual agonist
- canonical cAMP generation (MC1R [9]; receptors MC1R and MC3R, hence no MC1R-induced melanogenesis): does not provoke canonical cAMP generation

SMILES: CN(Cc1cnc2nc(N)nc(N)c2n1)c1ccc(C(=O)N[C@@H](CCC(=O)O)C(=O)O)cc1 [methotrexate, reference compound]
- incidence of severe arthritis (% of mice in each group that reached a total score of 10) [4]: 50%
